Data from patent US11292799B2, “Substituted azetidine dihydrothienopyrimidines and their use as phosphodiesterase inhibitors” (UNION therapeutics A/S, priority 2017, dated 2022).

Assays:
[1] = test system: TNF-α release, human peripheral blood mononuclear cells (PBMC); assay: TNF-α release in LPS-stimulated PBMC; type: cell-based; conditions: lipopolysaccharide stimulation for 18 hours, read-out: TNF-α IC50 range
Procedure: Human peripheral blood mononuclear cells (PBMC) were isolated from buffy coats. The blood is mixed with saline at a ratio of 1:1, and the PBMC were isolated using Lymphoprep Tubes™ (Nycomed, Norway). The PBMC were suspended in RPMI1640 with 0.5% human serum albumin, pen/strep and 2 mM L-glutamine at a concentration of 5×105 c/ml. The cells were pre-incubated for 30 minutes with the test compounds in 96 well tissue culture plates and stimulated for 18 hours with lipopolysaccharide […] (Sigma). TNF-α concentration in the supernatants was measured using homogeneous time-resolved fluorescence resonance (TR-FRET). The assay is quantified by measuring fluorescence at 665 nm (proportional to TNF-α concentration) and 620 nm (control).
Results were expressed as IC50 values calculated from inhibition curves using as positive controls the secretion in LPS stimulated wells and as negative controls the secretion in unstimulated cells.

[2] = molecular target: human PDE4D catalytic domain (Homo sapiens (Human), UniProt Q08499); assay: PDE4 assay (TR-FRET, cAMP cleavage); type: biochemical; conditions: read-out: PDE4 IC50 range
Sequence of human PDE4D catalytic domain (Q08499 380-740 limits assumed): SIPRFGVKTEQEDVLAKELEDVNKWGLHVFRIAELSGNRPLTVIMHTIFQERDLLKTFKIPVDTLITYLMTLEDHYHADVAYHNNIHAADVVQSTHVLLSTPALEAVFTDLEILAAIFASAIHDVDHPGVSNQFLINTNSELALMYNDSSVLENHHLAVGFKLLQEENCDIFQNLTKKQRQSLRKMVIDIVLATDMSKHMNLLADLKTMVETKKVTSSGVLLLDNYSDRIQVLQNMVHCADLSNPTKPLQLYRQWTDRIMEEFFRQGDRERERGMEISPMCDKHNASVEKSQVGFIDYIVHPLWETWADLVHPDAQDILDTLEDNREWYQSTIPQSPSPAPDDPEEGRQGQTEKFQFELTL
Procedure: The human PDE4D catalytic domain (UniProt no. Q08499 [[…]]) was incubated with a mixture of non-labelled cAMP (cyclic adenosine monophosphate) and fluorescein amidite (FAM) conjugated cAMP and titrated test or reference compound. Following brief incubation the enzymatic reaction was stopped by addition of binding buffer containing nanoparticles with immobilized trivalent metal ions capable of binding 1) AMP phospho groups and 2) terbium (Tb) donor fluorophores. Subsequent excitation of the Tb donor triggers time-resolved FRET to adjacent FAM acceptor molecules resulting in light emission. In the presence of a PDE4 inhibitor, AMP generation was reduced resulting in a lower fluorescence signal. The cAMP phosphodiester is not bound by the detection system.
The results were calculated as the molar concentrations resulting in 50% inhibition of the substrate cleavage compared to controls samples, and are expressed as IC50 (nM).

| Structure (SMILES) | IC50 [1] | IC50 [2] |
| --- | --- | --- |
| COC(=O)N1CC[C@@H](Nc2nc(N3CC(c4ccccc4)C3)nc3c2[S@+]([O-])CC3)C1 [Example 6, Methyl (3R)-3-(((5R)-5-Oxido-2-(3-phenylazetidin-1-yl)-6,7-dihydrothieno[3,2-d]pyrimidin-4-yl)amino)pyrrolidine-1-carboxylate] | < 10 nM | < 10 nM |
| COC(=O)N1CCC[C@@H](Nc2nc(N3CC(Oc4ccc(F)cc4)C3)nc3c2[S@+]([O-])CC3)C1 [Example 7, Methyl (3R)-3-(((5R)-2-(3-(4-Fluorophenoxy)azetidin-1-yl)-5-oxido-6,7-dihydrothieno[3,2-d]pyrimidin-4-yl)amino)piperidine-1-carboxylate] | < 10 nM | < 10 nM |
| [O-][S+]1CCc2nc(N3CC(Oc4cccnc4)C3)nc(NC34CC(C3)C4)c21 (stereo in doubt) [Example 14, (R)-4-(Bicyclo[1.1.1]pentan-1-ylamino)-2-(3-(pyridin-3-yloxy)azetidin-1-yl)-6,7-dihydrothieno[3,2-d]pyrimidine 5-oxide] | 10 to 50 nM | < 10 nM |
| [O-][S+]1CCc2nc(N3CC(Oc4ccc(F)cc4)C3)nc(NC34CC(C3)C4)c21 (stereo in doubt) [Example 10, (R)-4-(Bicyclo[1.1.1]pentan-1-ylamino)-2-(3-(4-fluorophenoxy)azetidin-1-yl)-6,7-dihydrothieno[3,2-d]pyrimidine 5-oxide] | < 10 nM | < 10 nM |
| [O-][S+]1CCc2nc(N3CC(c4cccc(F)c4)C3)nc(NC34CC(C3)C4)c21 (stereo in doubt) [Example 13, (R)-4-(Bicyclo[1.1.1]pentan-1-ylamino)-2-(3-(3-fluorophenyl)azetidin-1-yl)-6,7-dihydrothieno[3,2-d]pyrimidine 5-oxide] | < 10 nM | < 10 nM |
| [O-][S+]1CCc2nc(N3CC(c4ccccc4)C3)nc(NC3CCOCC3)c21 (stereo in doubt) [Example 1, (R)-2-(3-Phenylazetidin-1-yl)-4-((tetrahydro-2H-pyran-4-yl)amino)-6,7-dihydrothieno[3,2-d]pyrimidine 5-oxide] | < 10 nM | < 10 nM |
| COC(=O)N1CC[C@H](Nc2nc(N3CC(c4ccccc4)C3)nc3c2[S@+]([O-])CC3)C1 [Example 5, Methyl (3S)-3-(((5R)-5-oxido-2-(3-phenylazetidin-1-yl)-6,7-dihydrothieno[3,2-d]pyrimidin-4-yl)amino)pyrrolidine-1-carboxylate] | 10 to 50 nM | 10 to 50 nM |
| [O-][S+]1CCc2nc(N3CC(Oc4ccccc4)C3)nc(NC3CCOCC3)c21 (stereo in doubt) [Example 2, (R)-2-(3-Phenoxyazetidin-1-yl)-4-((tetrahydro-2H-pyran-4-yl)amino)-6,7-dihydrothieno[3,2-d]pyrimidine 5-oxide] | < 10 nM | < 10 nM |
| CC1(Nc2nc(N3CC(c4ccccn4)C3)nc3c2[S@+]([O-])CC3)CCC1 [Example 15, (R)-4-((1-Methylcyclobutyl)amino)-2-(3-(pyridin-2-yl)azetidin-1-yl)-6,7-dihydrothieno[3,2-d]pyrimidine 5-oxide] | < 10 nM | < 10 nM |
| [O-][S+]1CCc2nc(N3CC(c4ccccc4)C3)nc(NC34CC(C3)C4)c21 (stereo in doubt) [Example 11, (R)-4-(Bicyclo[1.1.1]pentan-1-ylamino)-2-(3-phenylazetidin-1-yl)-6,7-dihydrothieno[3,2-d]pyrimidine 5-oxide] | < 10 nM | < 10 nM |
| COC(=O)N1CCC[C@H](Nc2nc(N3CC(Oc4ccc(F)cc4)C3)nc3c2[S@+]([O-])CC3)C1 [Example 8, Methyl (3S)-3-(((5R)-2-(3-(4-Fluorophenoxy)azetidin-1-yl)-5-oxido-6,7-dihydrothieno[3,2-d]pyrimidin-4-yl)amino)piperidine-1-carboxylate] | < 10 nM | < 10 nM |
| [O-][S+]1CCc2nc(N3CC(c4ccccn4)C3)nc(NC34CC(C3)C4)c21 (stereo in doubt) [Example 12, (R)-4-(Bicyclo[1.1.1]pentan-1-ylamino)-2-(3-(pyridin-2-yl)azetidin-1-yl)-6,7-dihydrothieno[3,2-d]pyrimidine 5-oxide] | 10 to 50 nM | 10 to 50 nM |
| [O-][S+]1CCc2nc(N3CC(c4ccc(F)cc4)C3)nc(NC34CC(C3)C4)c21 (stereo in doubt) [Example 9, (R)-4-(Bicyclo[1.1.1]pentan-1-ylamino)-2-(3-(4-fluorophenyl)azetidin-1-yl)-6,7-dihydrothieno[3,2-d]pyrimidine 5-oxide] | < 10 nM | < 10 nM |
| [O-][S+]1CCc2nc(N3CC(Oc4ccc(F)cc4)C3)nc(NC3CCOCC3)c21 (stereo in doubt) [Example 3, (R)-2-(3-(4-Fluorophenoxy)azetidin-1-yl)-4-((tetrahydro-2H-pyran-4-yl)amino)-6,7-dihydrothieno[3,2-d]pyrimidine 5-oxide] | < 10 nM | < 10 nM |
| O=S1(=O)CCC(Nc2nc(N3CC(c4ccccc4)C3)nc3c2[S+]([O-])CC3)CC1 (stereo in doubt) [Example 17, (5R)—N-(1,1-Dioxothian-4-yl)-5-oxido-2-(3-phenylazetidin-1-yl)-6,7-dihydrothieno[3,2-d]pyrimidin-4-yl-amine] | < 10 nM |  |
| O=S1(=O)CC(Nc2nc(N3CC(c4ccccc4)C3)nc3c2[S@+]([O-])CC3)C1 [Example 4, (R)-3-((5-Oxido-2-(3-phenylazetidin-1-yl)-6,7-dihydrothieno[3,2-d]pyrimidin-4-yl)amino)thietane 1,1-dioxide] | 10 to 50 nM |  |
| CC1(Nc2nc(N3CC(c4cccnc4)C3)nc3c2[S@+]([O-])CC3)CCC1 [Example 16, (R)-4-((1-Methylcyclobutyl)amino)-2-(3-(pyridin-3-yl)azetidin-1-yl)-6,7-dihydrothieno[3,2-d]pyrimidine 5-oxide] | 10 to 50 nM | 10 to 50 nM |
